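These data come from cells grown in 96-well plates and exposed to compound for 48 hours at five concentrations. GI50 is the concentration that inhibits growth by half. TGI is the concentration that stops growth completely.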
Legend:
Test in all cases: NCI anticancer screen, dose series, 48 h
786-0 renal = test system: 786-0 renal
A498 renal = test system: A498 renal
A549 NSCLC = test system: A549 NSCLC
ACHN renal = test system: ACHN renal
BT-549 breast = test system: BT-549 breast
CAKI-1 renal = test system: CAKI-1 renal
CCRF-CEM leukemia = test system: CCRF-CEM leukemia
COLO 205 colon = test system: COLO 205 colon
DU-145 prostate = test system: DU-145 prostate
EKVX NSCLC = test system: EKVX NSCLC
HCC-2998 colon = test system: HCC-2998 colon
HCT-116 colon = test system: HCT-116 colon
HCT-15 colon = test system: HCT-15 colon
HL-60(TB) leukemia = test system: HL-60(TB) leukemia
HOP-62 NSCLC = test system: HOP-62 NSCLC
HOP-92 NSCLC = test system: HOP-92 NSCLC
HS 578T breast = test system: HS 578T breast
HT29 colon = test system: HT29 colon
IGROV1 ovarian = test system: IGROV1 ovarian
K-562 leukemia = test system: K-562 leukemia
KM12 colon = test system: KM12 colon
LOX IMVI melanoma = test system: LOX IMVI melanoma
M14 melanoma = test system: M14 melanoma
MALME-3M melanoma = test system: MALME-3M melanoma
MCF7 breast = test system: MCF7 breast
MDA-MB-231 breast = test system: MDA-MB-231 breast
MDA-MB-435 = test system: MDA-MB-435
MOLT-4 leukemia = test system: MOLT-4 leukemia

Work on `O=C(/C=C/c1cccc(O)c1)c1cccc(-n2cc(-c3ccc(Cl)cc3)[nH]c2=O)c1` yielded a GI50 (786-0 renal) of 1.57 µM, a TGI (786-0 renal) of 2.99 µM and a GI50 (A498 renal) of 3.71 µM. For the same compound, the TGI (A498 renal) was 16.1 µM, the GI50 (A549 NSCLC) was 3.55 µM and the TGI (A549 NSCLC) was over 100 µM. It also gave a GI50 (ACHN renal) of 1.84 µM, a TGI (ACHN renal) of 4.13 µM and a GI50 (BT-549 breast) of 1.45 µM. The TGI (BT-549 breast) was 3.72 µM, the GI50 (CAKI-1 renal) was 1.72 µM and the TGI (CAKI-1 renal) was 4.07 µM. For the same compound, the GI50 (CCRF-CEM leukemia) was 1.76 µM, the TGI (CCRF-CEM leukemia) was 9.97 µM and the GI50 (COLO 205 colon) was 2.29 µM. It also gave a TGI (COLO 205 colon) of 4.95 µM, a GI50 (DU-145 prostate) of 1.68 µM and a TGI (DU-145 prostate) of 4.18 µM. The GI50 (EKVX NSCLC) was 2.4 µM, the TGI (EKVX NSCLC) was 9.62 µM and the GI50 (HCC-2998 colon) was 13.7 µM. For the same compound, the TGI (HCC-2998 colon) was 27.6 µM, the GI50 (HCT-116 colon) was 1.23 µM and the TGI (HCT-116 colon) was 2.52 µM. For the same compound, the GI50 (HCT-15 colon) was 2.34 µM, the TGI (HCT-15 colon) was 10.5 µM and the GI50 (HL-60(TB) leukemia) was 1.09 µM. For the same compound, the TGI (HL-60(TB) leukemia) was 3.51 µM, the GI50 (HOP-62 NSCLC) was 2.36 µM and the TGI (HOP-62 NSCLC) was 4.88 µM. It also gave a GI50 (HOP-92 NSCLC) of 1.6 µM, a TGI (HOP-92 NSCLC) of 5.41 µM and a GI50 (HS 578T breast) of 4 µM. For the same compound, the TGI (HS 578T breast) was 44 µM, the GI50 (HT29 colon) was 1.9 µM and the TGI (HT29 colon) was 3.99 µM. For the same compound, the GI50 (IGROV1 ovarian) was 1.92 µM, the TGI (IGROV1 ovarian) was 6.38 µM and the GI50 (K-562 leukemia) was 0.405 µM. The TGI (K-562 leukemia) was 3.63 µM, the GI50 (KM12 colon) was 1.34 µM and the TGI (KM12 colon) was 3 µM. The GI50 (LOX IMVI melanoma) was 1.57 µM, the TGI (LOX IMVI melanoma) was 3.11 µM and the GI50 (M14 melanoma) was 2.01 µM. It also gave a TGI (M14 melanoma) of 4.44 µM, a GI50 (MALME-3M melanoma) of 1.83 µM and a TGI (MALME-3M melanoma) of 6.16 µM. It also gave a GI50 (MCF7 breast) of 1.29 µM, a TGI (MCF7 breast) of 3.76 µM and a GI50 (MDA-MB-231 breast) of 3.35 µM. The TGI (MDA-MB-231 breast) was 17.3 µM, the GI50 (MDA-MB-435) was 2.06 µM and the TGI (MDA-MB-435) was 6.64 µM. It also gave a GI50 (MOLT-4 leukemia) of 0.535 µM.

— PubChem BioAssay (NCI)
